Legend:
ASIC1a [1] = molecular target: T1, ASIC1a (Homo sapiens, UniProt P78348); test: Two-electrode voltage clamp in Xenopus laevis oocytes (Xo), acid-induced currents; format: cell-based; set-up: expressed in transfected cells; host or cells: Xenopus laevis oocytes (nuclear microinjection of expression vector such as pcDNA3); conditions: 50 μM, Xenopus oocytes; read-out: % inh. at 50 μM (Xo)
T1 sequence (P78348 1-528): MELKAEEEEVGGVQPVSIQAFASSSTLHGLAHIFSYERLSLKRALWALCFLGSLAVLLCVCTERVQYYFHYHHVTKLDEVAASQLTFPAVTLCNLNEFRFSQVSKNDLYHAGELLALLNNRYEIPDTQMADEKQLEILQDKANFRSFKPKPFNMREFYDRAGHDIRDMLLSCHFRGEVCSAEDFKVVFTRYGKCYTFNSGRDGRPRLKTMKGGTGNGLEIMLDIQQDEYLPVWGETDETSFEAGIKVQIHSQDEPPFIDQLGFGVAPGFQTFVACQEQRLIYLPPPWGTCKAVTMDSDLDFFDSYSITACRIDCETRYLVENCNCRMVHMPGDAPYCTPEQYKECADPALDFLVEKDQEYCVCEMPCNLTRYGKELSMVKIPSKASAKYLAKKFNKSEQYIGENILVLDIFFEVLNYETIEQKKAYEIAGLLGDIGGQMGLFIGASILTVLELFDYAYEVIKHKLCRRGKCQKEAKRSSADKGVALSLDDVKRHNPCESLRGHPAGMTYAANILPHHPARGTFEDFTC
Procedure: Two-electrode voltage clamp electrophysiological assays in Xenopus laevis oocytes expressing gated ion channels are performed as follows:
Oocytes are surgically removed from adult Xenopus laevis and treated for 2 h at room temperature with 1 mg/ml type I collagenase (Sigma) in Barth's solution under mild agitation. Selected oocytes at stage IV-V are defolliculated manually before nuclear microinjection of 2.5-5 ng of a suitable expression vector, such as pcDNA3, comprising the nucleotide sequence encoding a gated ion channel subunit protein. In such an experiment, the oocytes express homomultimeric proton-gated ion channels on their surface. In an alternate experiment, one, two, three or more vectors comprising the coding sequences for distinct gated ion channel subunits are co-injected in the oocyte nuclei. In the latter case, oocytes express heteromultimeric proton-gated ion channels. For example, ASIC2a and/or ASIC3 subunits in pcDNA3 vector are co-injected at a 1:1 cDNA ratio. After 2-4 days of expression at 19° C. in Barth's solution containing […] gentamicin and 1.8 mM CaCl2, gated ion channels are activated by applying an acidic solution (pH<7) and currents are recorded in a two electrode voltage-clamp configuration, using an OC-725B amplifier (Warner Instruments). Currents are acquired and digitized at 500 Hz on an Apple Imac G3 computer with an A/D NB-MIO-16XL interface (National Instruments) and recorded traces are post-filtered at 100 Hz in Axograph (Axon Instruments) (Neher, E. and Sakmann, B. (1976) Nature 260:799-802). Once impaled with the microelectrodes, oocytes are continuously superfused at 10-12 ml/min with a modified Ringer's solution containing 97 mM NaCl, 2 mM KCl, 1.8 mM CaCl2, and 10 mM HEPES brought to pH 7.4 with NaOH (Control Ringer). Test Ringer solution is prepared by replacing HEPES with MES and adjusting the pH to the desired acidic value. Compounds of the present invention are prepared in both the Control and Test Ringer solutions and applied to oocytes at room temperature through a computer-controlled switching valve system. Osmolarity of all solutions is adjusted to 235 mOsm with choline chloride. Similarly, recordings can also be acquired in an automated multichannel oocytes system as the OpusExpress™ (Molecular Devices, Sunnyvale, USA).
FIGS. 1A and 2A illustrate the inhibitory effects of Compounds 203 and 206 on acid-induced activation of recombinant homomeric hASIC1a channels.

ASIC1a [2] = molecular target: T1, ASIC1a; test: Calcium imaging of MES-induced calcium response (FLIPR); format: cell-based; set-up: host or cells: HEK293; conditions: ASIC1a expressing HEK293 cells, MES-induced calcium response; read-out: IC50 (FLIPR)

Structure (SMILES) | inhibition at 50 µM (ASIC1a [1]) [%] | IC50 (ASIC1a [2]) [µM]
CN1CCc2c(-c3ccccc3)cc3c(c2C1)NC(=O)/C3=C/c1ccc(C(=O)O)cc1 [Compound 83] | < 25 | > 70
CN1CCc2c(-c3ccccc3)cc3c(c2C1)NC(=O)/C3=C/c1cccc(C(=O)O)c1 [Compound 84] | < 25 | > 70
CN1CCc2c(-c3ccccc3)cc3c(c2C1)NC(=O)/C3=C/c1cccc(O)c1 [Compound 85] | < 25 | > 70
CN1CCc2c(-c3ccccc3)cc3c(c2C1)NC(=O)/C3=C/c1ccccc1O [Compound 86] | < 25 | > 70
CN1CCc2c(-c3ccccc3)cc3c(c2C1)NC(=O)/C3=C/c1ccccc1 [Compound 87] | < 25 | > 70
CN1CCc2c(-c3ccccc3)cc3c(c2C1)NC(=O)/C3=C/c1ccc(O)cc1 [Compound 88] | < 25 | > 70
C/C=C1/C(=O)Nc2c1cc(-c1ccccc1)c1c2CN(C)CC1 [Compound 89] | < 25 | > 70
CN1CCc2c(-c3ccccc3)cc3c(c2C1)NC(=O)/C3=C/c1ccccn1 [Compound 90] | < 25 | > 70
CN1CCc2c(-c3ccccc3)cc3c(c2C1)NC(=O)/C3=C/C(=O)O [Compound 91] | < 25 | > 70
CCOC(=O)/C=C1/C(=O)Nc2c1cc(-c1ccccc1)c1c2CN(C)CC1 [Compound 92] | < 25 | > 70
CN1CCc2c(-c3ccccc3)cc3c(c2C1)NC(=O)/C3=C1\CCCN1C [Compound 93] | < 25 | > 70
CN1CCc2c(-c3ccccc3)cc3c(O)cc(=O)[nH]c3c2C1 [Compound 94] | < 25 | > 70
CN(C)/C=C1/C(=O)Nc2c1cc(-c1ccccc1)c1c2CN(C)CC1 [Compound 95] | < 25 | > 70
Cc1nc2c3c(c(-c4ccccc4)cc2c(=O)o1)CCN(C)C3 [Compound 97] | < 25 | > 70
CN1CCc2c(-c3ccccc3)cc3c(=O)[nH]c(=O)[nH]c3c2C1 [Compound 98] | 20 to 40 | > 70
CN1CCc2c(-c3ccccc3)cc3[nH]c(=O)[nH]c3c2C1 [Compound 99] | < 25 | > 70
CN1CCc2c(-c3ccccc3)cc3c(c2C1)NC(=O)/C3=N/N [Compound 102] | > 50 | 20 to 40
CN1CCc2c(-c3ccccc3)cc3c(c2C1)NC(=O)/C3=N\NC(N)=O [Compound 103] | < 25 | 40 to 60
CN1CCc2c(-c3ccccc3)cc3c(c2C1)NC(=O)/C3=N/NC(N)=S [Compound 104] | 30 to 50 | > 70
[H]/N=C(\N)N/N=C1/C(=O)Nc2c1cc(-c1ccccc1)c1c2CN(C)CC1 [Compound 105] | 20 to 30 | 20 to 40
CN1CCc2c(-c3ccccc3)ccc(CN)c2C1 [Compound 115] | < 25 | > 70
COc1ccc(NC(=O)NCc2ccc(-c3ccccc3)c3c2CN(C)CC3)cc1 [Compound 117] | < 25 | > 70

Structure (SMILES) | inhibition at 50 µM (ASIC1a [1]) [%] | IC50 (ASIC1a [2]) [µM]
CCOC(=O)CNCc1ccc(-c2ccccc2)c2c1CN(C)CC2 [Compound 118] | < 25 | > 70
CN1CCc2c(-c3ccccc3)ccc(CNCC(=O)O)c2C1 [Compound 119] | < 25 | > 70
CCOC(=O)N1CCc2c(-c3ccccc3)ccc(CN)c2C1 [Compound 120] | < 25 | > 70
CCOC(=O)CNCc1ccc(-c2ccccc2)c2c1CN(C(=O)OCC)CC2 [Compound 121] | < 25 | > 70
CCOC(=O)/C=N\c1ccc(-c2ccccc2)c2c1CN(C)CC2 [Compound 124] | < 25 | > 70
CCOC(=O)C(=O)Nc1ccc(-c2ccccc2)c2c1CN(C(=O)OCC)CC2 [Compound 125] | < 25 | > 70
CCOC(=O)CNc1ccc(-c2ccccc2)c2c1CN(C)CC2 [Compound 126] | < 25 | 20 to 40
CN1CCc2c(-c3ccccc3)ccc(NCC(=O)O)c2C1 [Compound 127] | < 25 | > 70
CN1CCc2c(-c3ccccc3)cc(C(N)=O)c(N)c2C1 [Compound 128] | < 25 | > 70
CN1CCc2c(-c3ccccc3)ccc(NC(=O)OC(C)(C)C)c2C1 [Compound 129] | < 25 | 50 to 70
CN1CCc2c(-c3ccccc3)cc(C#N)c(NC(=O)OC(C)(C)C)c2C1 [Compound 130] | < 25 | > 70
CN1CCc2c(-c3ccccc3)ccc(NC(=O)CCO)c2C1 [Compound 131] | < 25 | > 70
COC(=O)CCC(=O)Nc1ccc(-c2ccccc2)c2c1CN(C)CC2 [Compound 132] | < 25 | > 70
CN1CCc2c(-c3ccccc3)ccc(NC(=O)CCCO)c2C1 [Compound 133] | < 25 | > 70
CN1CCc2c(-c3ccccc3)ccc(NC(=O)CCC(=O)O)c2C1 [Compound 134] | < 25 | > 70
O=[N+]([O-])c1ccc(-c2ccccc2)c2ccncc12 [Compound 135] | < 25 | > 70
Nc1ccc(-c2ccccc2)c2ccncc12 [Compound 136] | < 25 | > 70
COC(=O)CC(=O)Nc1ccc(-c2ccccc2)c2c1CN(C)CC2 [Compound 137] | < 25 | > 70
CCOC(=O)N1CCc2c(-c3ccccc3)ccc(NCC(=O)O)c2C1 [Compound 138] | < 25 | > 70
CCOC(=O)CN(C(C)=O)c1ccc(-c2ccccc2)c2c1CN(C(=O)OCC)CC2 [Compound 139] | < 25 | 50 to 70
CCOC(=O)CNc1ccc(-c2ccccc2)c2c1CN(C(=O)OCC)CC2 [Compound 140] | < 25 | > 70

Reference: patent US20080004272A1, “Compositions and methods for modulating gated ion channels” (PainCeptor Pharma Corporation, priority 2006, published 2008)
